Results from ChEMBL document CHEMBL1201862, “PubChem BioAssay data set” (2004).
The source made the active and inactive calls.

Legend:
[1] = target: Voltage-dependent T-type calcium channel subunit alpha-1H (Homo sapiens, UniProt O95180); assay type: functional;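 note: channel activity triggered by adding a high calcium stimulation buffer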
[2] = target: T1, Carboxy-terminal domain RNA polymerase II polypeptide A small phosphatase 1 (Homo sapiens, UniProt Q9GZU7); test: CTDSP1 inhibitors, concentration-response, biochemical, absorbance readout, ultra-high-throughput screen actives (AID 540297); assay type: functional
T1 sequence (Q9GZU7 whole entry): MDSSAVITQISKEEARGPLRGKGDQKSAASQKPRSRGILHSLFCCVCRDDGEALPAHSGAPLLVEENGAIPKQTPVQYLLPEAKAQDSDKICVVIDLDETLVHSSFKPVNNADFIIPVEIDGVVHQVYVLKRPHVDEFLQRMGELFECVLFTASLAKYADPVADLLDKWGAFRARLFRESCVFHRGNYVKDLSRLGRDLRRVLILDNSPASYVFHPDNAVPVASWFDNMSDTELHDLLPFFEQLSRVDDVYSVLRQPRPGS

[3] = microbe, parasite or virus in culture; assay type: functional; settings: Mycobacterium tuberculosis
[4] = target: T2, Replicative DNA helicase DnaB (Mycobacterium tuberculosis, UniProt P9WMR3); test: DnaB intein splicing inhibitors, dose response, biochemical, cell-free fluorescence (AID 449749); assay type: functional
T2 sequence (P9WMR3 whole entry): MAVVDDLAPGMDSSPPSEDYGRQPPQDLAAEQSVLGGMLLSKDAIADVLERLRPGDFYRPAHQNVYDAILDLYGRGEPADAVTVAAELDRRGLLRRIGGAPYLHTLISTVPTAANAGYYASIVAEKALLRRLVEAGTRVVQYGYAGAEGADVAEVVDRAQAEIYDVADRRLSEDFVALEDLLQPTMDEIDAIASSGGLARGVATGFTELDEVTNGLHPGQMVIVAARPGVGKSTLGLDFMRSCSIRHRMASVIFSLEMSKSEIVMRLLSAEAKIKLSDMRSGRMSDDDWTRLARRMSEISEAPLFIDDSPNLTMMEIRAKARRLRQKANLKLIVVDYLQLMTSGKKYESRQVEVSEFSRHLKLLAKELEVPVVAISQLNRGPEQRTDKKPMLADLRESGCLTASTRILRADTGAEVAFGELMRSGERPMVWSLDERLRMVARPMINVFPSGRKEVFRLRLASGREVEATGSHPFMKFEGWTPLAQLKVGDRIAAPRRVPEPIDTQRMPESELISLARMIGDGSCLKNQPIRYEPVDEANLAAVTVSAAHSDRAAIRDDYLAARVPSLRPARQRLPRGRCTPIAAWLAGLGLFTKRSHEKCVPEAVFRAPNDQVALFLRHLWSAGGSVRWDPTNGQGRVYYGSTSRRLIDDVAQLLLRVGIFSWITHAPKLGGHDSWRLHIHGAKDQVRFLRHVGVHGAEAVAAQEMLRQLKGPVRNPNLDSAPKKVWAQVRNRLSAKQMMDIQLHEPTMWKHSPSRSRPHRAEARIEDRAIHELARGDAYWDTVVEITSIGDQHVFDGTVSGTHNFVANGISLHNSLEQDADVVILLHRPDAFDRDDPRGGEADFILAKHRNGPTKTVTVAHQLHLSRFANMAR

Protein RecA = target: T3, Protein RecA (Mycobacterium tuberculosis, UniProt P9WHJ3); test: Fluorescence Cell-Free Homogeneous Dose Retest to Identify Inhibitors of RecA-Intein Splicing Activity. [Related pubchem assays (depositor defined):AID2097, AID2223, AID489010, AID492950]; assay type: functional
T3 sequence (P9WHJ3 whole entry): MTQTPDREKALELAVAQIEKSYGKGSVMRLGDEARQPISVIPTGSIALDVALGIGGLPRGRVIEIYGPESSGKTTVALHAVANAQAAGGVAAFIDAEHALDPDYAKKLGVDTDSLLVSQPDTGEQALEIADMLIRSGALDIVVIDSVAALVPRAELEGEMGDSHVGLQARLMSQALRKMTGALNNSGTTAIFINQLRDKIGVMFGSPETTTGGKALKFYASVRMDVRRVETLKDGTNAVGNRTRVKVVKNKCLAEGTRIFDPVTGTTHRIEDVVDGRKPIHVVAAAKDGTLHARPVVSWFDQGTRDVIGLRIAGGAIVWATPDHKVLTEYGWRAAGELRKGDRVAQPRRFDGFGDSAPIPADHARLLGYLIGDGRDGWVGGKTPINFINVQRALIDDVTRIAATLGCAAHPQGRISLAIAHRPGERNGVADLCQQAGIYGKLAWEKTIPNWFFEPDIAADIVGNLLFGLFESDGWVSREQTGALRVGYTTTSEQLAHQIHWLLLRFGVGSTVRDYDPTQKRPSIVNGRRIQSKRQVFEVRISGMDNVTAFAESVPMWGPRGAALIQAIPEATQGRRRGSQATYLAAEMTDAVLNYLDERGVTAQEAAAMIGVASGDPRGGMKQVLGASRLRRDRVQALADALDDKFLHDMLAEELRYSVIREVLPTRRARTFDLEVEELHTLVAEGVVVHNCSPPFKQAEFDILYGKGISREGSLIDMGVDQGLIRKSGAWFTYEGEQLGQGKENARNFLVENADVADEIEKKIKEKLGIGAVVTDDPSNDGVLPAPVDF

[5] = system: Streptococcus sp. 'group A'; test: Streptococcus pyogenes SK(-)GAS viability under kanamycin – luminescence, BacTiterGlo, confirmation, counter-screen for streptokinase expression inhibitor project, dose response (AID 1900); assay type: functional, organism-based
Streptokinase A = target: T4, Streptokinase A (Streptococcus pyogenes serotype M1, UniProt P10520); test: viability-normalized secreted streptokinase activity reduction – plasminogen activation absorbance, OD405, dose response (AID 1914); assay type: functional, Streptococcus pyogenes M1 GAS;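 note: secreted streptokinase activity via plasminogen activation per viability signal from cell pellet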
T4 sequence (P10520 whole entry): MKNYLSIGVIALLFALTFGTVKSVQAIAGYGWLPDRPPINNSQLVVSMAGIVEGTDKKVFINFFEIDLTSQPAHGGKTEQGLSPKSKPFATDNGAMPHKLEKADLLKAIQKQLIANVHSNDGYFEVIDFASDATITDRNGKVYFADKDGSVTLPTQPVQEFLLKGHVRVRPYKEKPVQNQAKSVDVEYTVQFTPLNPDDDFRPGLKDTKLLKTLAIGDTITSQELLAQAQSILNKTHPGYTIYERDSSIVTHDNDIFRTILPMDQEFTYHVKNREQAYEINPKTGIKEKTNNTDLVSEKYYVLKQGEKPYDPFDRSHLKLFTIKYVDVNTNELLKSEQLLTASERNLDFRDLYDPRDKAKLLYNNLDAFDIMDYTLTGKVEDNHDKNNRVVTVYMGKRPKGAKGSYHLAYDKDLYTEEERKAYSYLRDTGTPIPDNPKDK

Streptococcus = test: GAS UMAA2166 growth inhibition – luminescence, BacTiterGlo, counter-screen for streptokinase expression inhibitor project, dose response (AID 1915); assay type: functional, organism-based;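 note: potency for reduction of bacterial viability or growth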
[6] = target: T5, Ubiquitin-conjugating enzyme E2 N (Homo sapiens, UniProt P61088); assay type: functional;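 note: Dose-response confirmation in a TR-FRET assay detecting UBC13-driven polyubiquitin chain formation, inhibition measured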
T5 sequence (P61088 whole entry): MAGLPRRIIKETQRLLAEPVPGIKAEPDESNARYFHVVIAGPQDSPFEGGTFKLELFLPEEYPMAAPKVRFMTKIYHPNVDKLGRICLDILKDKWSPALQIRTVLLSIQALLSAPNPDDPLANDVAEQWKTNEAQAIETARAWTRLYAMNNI

SUMO-activating enzyme = SUMO-activating enzyme (Homo sapiens, UniProt Q9UBT2); test: blockers of UBC9-mediated SUMO conjugation – biochemical, AlphaScreen, SUMOylation inhibitor project, confirmation (AID 2018); assay type: functional
Sequence of SUMO-activating enzyme (Q9UBE0 whole entry): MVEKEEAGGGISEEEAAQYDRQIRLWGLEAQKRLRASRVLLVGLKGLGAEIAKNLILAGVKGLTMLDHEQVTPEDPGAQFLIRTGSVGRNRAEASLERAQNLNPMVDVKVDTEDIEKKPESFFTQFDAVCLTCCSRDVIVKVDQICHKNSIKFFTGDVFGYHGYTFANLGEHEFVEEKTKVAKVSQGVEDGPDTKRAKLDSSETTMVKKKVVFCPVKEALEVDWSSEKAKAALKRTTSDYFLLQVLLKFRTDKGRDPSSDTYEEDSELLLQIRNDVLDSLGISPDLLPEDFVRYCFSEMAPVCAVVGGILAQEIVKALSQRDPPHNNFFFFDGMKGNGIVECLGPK
Sequence of SUMO-activating enzyme (Q9UBT2 whole entry): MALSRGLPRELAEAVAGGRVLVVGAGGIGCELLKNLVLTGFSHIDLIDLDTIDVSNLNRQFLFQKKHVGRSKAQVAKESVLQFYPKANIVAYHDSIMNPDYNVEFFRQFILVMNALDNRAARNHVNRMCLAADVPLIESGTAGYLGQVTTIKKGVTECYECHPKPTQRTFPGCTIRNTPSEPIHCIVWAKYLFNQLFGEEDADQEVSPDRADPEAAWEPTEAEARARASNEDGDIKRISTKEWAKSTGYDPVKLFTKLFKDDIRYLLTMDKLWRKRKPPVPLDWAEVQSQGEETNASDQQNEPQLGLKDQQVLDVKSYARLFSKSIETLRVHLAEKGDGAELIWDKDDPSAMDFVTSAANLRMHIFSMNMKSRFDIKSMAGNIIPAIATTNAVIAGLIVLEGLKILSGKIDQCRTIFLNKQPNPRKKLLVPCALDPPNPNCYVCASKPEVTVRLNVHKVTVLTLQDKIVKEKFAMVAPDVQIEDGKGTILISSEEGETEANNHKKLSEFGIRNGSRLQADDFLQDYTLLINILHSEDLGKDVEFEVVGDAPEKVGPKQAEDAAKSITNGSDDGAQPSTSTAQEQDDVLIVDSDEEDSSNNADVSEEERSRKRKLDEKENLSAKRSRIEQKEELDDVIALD

BJ [7] = test: BJ-TERT fibroblast viability loss – cell-based, RAS-independent, luminescence, dose response (AID 1933); assay type: functional; settings: Homo sapiens
BJ [8] = test: cells; assay type: functional, cell-based; settings: Homo sapiens
BJ [9] = test: BJ-TERT-LT-ST fibroblast viability loss – cell-based, RAS-independent, luminescence, dose response (AID 1935); assay type: functional; settings: Homo sapiens;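 note: BJ fibroblasts immortalized with TERT plus LT and ST oncogenes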
[10] = DRD fibroblast viability loss – cell-based, non-viral oncogenic, luminescence, dose response (AID 1934); assay type: functional; settings: Homo sapiens
[11] = target: T6, Calpain-2 catalytic subunit (Sus scrofa, UniProt P43367); test: m-calpain protease blockers, concentration series – biochemical, fluorogenic peptide substrate, dose response (AID 1420); assay type: functional
T6 sequence (P43367 whole entry): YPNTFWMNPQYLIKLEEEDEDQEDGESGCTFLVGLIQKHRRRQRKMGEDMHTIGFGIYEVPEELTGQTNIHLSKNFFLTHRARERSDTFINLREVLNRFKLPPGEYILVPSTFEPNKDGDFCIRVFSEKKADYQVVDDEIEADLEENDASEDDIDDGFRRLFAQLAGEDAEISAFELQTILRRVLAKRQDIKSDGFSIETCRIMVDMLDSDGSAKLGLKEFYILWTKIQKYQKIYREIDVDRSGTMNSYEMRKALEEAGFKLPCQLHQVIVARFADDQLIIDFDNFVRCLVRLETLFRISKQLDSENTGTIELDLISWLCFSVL

Sequence of Voltage-dependent T-type calcium channel subunit alpha-1H (O95180 whole entry, the tested form may be a part): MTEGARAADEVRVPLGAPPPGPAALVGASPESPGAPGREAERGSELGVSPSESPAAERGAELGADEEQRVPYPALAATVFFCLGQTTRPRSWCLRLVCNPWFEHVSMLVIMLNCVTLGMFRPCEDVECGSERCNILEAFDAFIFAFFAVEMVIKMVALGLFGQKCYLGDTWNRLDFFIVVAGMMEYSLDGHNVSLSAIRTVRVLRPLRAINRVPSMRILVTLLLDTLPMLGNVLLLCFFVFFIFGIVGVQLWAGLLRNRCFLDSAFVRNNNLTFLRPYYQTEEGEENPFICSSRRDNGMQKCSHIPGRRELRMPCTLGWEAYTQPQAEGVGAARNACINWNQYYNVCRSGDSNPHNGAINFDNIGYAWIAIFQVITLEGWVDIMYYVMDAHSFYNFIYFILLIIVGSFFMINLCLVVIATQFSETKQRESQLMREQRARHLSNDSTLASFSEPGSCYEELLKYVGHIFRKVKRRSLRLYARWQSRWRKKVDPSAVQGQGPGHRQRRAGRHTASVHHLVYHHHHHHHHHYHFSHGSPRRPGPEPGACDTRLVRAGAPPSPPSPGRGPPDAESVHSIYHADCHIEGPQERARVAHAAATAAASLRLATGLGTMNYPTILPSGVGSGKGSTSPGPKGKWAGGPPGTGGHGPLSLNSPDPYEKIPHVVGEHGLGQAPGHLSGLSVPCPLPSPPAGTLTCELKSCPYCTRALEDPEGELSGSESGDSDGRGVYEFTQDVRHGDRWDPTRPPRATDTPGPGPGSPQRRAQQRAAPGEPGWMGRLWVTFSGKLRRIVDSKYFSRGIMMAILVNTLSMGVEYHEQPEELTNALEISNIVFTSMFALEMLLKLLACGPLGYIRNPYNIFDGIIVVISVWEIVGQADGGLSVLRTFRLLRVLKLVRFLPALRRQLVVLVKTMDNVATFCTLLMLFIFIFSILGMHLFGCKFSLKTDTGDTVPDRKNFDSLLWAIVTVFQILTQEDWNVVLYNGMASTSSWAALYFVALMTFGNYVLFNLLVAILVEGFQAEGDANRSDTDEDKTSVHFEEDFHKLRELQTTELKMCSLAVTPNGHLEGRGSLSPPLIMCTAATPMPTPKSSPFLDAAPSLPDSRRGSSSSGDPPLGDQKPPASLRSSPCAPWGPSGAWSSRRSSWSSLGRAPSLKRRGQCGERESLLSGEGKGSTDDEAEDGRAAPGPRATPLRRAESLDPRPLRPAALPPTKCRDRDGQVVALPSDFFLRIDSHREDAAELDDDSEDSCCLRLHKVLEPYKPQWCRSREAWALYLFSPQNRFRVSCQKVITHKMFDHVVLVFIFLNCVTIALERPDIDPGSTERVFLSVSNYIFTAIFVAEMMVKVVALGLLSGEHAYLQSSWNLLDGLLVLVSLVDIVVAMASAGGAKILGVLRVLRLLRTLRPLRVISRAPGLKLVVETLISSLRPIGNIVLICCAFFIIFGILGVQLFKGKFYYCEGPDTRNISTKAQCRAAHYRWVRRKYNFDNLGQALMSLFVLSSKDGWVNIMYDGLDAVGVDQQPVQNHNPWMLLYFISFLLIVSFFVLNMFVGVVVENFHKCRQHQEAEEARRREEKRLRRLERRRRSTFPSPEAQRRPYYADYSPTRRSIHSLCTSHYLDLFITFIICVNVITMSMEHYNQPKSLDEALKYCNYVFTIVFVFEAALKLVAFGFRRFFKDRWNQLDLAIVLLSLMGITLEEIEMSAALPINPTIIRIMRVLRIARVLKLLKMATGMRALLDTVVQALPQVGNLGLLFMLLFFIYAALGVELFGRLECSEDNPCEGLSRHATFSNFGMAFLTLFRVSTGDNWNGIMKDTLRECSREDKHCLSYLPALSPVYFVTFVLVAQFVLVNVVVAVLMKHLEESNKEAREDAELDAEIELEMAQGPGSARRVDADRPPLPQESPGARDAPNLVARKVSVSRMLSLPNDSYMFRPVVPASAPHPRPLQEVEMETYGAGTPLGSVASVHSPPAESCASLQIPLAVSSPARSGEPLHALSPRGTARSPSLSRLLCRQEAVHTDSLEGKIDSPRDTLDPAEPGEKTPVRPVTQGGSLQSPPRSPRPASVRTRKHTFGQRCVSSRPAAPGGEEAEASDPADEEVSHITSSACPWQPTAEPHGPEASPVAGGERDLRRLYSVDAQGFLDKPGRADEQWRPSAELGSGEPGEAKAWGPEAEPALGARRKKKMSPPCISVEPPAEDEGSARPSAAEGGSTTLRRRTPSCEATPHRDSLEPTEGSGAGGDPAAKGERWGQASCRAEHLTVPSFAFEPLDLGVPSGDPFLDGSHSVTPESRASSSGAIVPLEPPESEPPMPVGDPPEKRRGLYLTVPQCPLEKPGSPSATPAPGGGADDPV

Which EC50 [1] does the source give for `CCc1ccc(S(=O)(=O)NCc2csc(-c3ccccc3)n2)s1` here?
The EC50 was 4.61 µM (active).

Which IC50 [2] does the source give for `O=C(O)CNC(=O)CC1SC(NNC2=NC(=O)CS2)=NC1=O` (stereo not given) here?
The IC50 was 5.27 µM (active).

Which CC50 [3] does the source give for `Cn1c2ccccc2c2cc(C(=O)NNC(=O)CCl)sc21` here?
Its CC50 is 21.3 µM (active).

What about the AC50 [4] of the same compound?
Its AC50 is > 380 µM (inactive).

And the EC50 (Protein RecA)?
Its EC50 is 15.7 µM (active).

Which EC50 [5] does the source give for `COc1cc2ccccc2cc1C(=O)NC(=S)Nc1ccc(C(=O)O)cc1` here?
Its EC50 is 8.15 µM (active).

And the EC50 (Streptokinase A)?
The EC50 was > 150 µM (not active).

And the EC50 (Streptococcus)?
The EC50 was 60.9 µM (active).

What about the IC50 [2] of the same compound?
The IC50 was 4.12 µM (active).

With `CC(=O)N1c2ccccc2N(Cc2ccc(C)cc2C)C(=O)C1(C)C` as the compound, how does the EC50 [1] read?
The EC50 was 4.43 µM (active).

For `CC[C@@H](C)[C@H](CN[C@H](CNC)C(C)C)NC[C@@H](C)c1ccc(CC(C)C)cc1`, which CC50 [3] is on record?
Its CC50 is 10 µM (active).

And the IC50 [6]?
Its IC50 is > 20 µM (inactive).

Which IC50 (SUMO-activating enzyme) does the source give for `Cc1cccc(C)c1OCC(=O)N=Nc1c(O)[nH]c2ccc(Br)cc12` here?
Its IC50 is 10.6 µM (active).

For `COc1ccccc1N1CCN(C(=O)CCC(=O)Nc2nnc(CC(C)C)s2)CC1`, which EC50 (BJ [7]) is on record?
The EC50 was > 150 µM (not active).

What about the EC50 (BJ [8]) of the same compound?
Its EC50 is > 150 µM (not active).

What about the EC50 (BJ [9]) of the same compound?
Its EC50 is > 150 µM (not active).

What about the EC50 [10] of the same compound?
The EC50 was > 150 µM (inconclusive).

For `Cc1ccsc1S(=O)(=O)N1CCCC(CCC(=O)NCc2ccccc2F)C1` (stereo not given), which IC50 [11] is on record?
Its IC50 is > 50 µM (not active).

For `COc1cccc(-c2nnc(SCC(=O)NCc3ccc4c(c3)OCO4)n2Cc2ccco2)c1`, which EC50 [1] is on record?
Its EC50 is 8.92 µM (active).

For `CC(=O)c1sc(NC(=O)COc2ccc(C(C)C)c(C)c2)nc1C`, which IC50 [11] is on record?
The IC50 was 9.95 µM (not active).
